Assay results taken from BindingDB's records for doi:10.1016/j.bmc.2008.10.023 (Polymer Functionalization Group (Ictp, Csic), 2008).

Molecular target: Peroxisome proliferator-activated receptor alpha (Homo sapiens) (UniProt Q07869)
Assay: Agonist activity at human PPARalpha expressed in human MCF7 cells coexpressing TIF2 by luciferase reporter gene assay

Peroxisome proliferator-activated receptor alpha (Homo sapiens), sequence (Q07869 whole entry, looked up): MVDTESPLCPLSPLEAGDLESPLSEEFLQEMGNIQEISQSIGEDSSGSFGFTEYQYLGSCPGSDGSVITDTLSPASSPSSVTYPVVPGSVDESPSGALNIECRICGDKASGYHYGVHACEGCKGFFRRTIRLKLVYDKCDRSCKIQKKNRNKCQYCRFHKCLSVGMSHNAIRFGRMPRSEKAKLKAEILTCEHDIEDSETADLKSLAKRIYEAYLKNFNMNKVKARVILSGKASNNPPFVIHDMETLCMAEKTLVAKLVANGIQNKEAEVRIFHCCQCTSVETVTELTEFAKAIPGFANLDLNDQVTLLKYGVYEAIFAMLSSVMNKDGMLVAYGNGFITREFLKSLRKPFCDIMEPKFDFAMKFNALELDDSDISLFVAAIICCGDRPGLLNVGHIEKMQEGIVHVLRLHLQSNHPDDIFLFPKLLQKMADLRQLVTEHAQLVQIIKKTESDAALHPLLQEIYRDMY

EC50 [nM] | SMILES
183 | CCCCCCCC/C=C\CCCCCCCCNC(=O)c1cc(-c2ccc(Cl)cc2)n(-c2ccccc2)n1
524 | CCCCCCCC/C=C\CCCCCCCCNC(=O)c1cc(-c2ccc(Cl)cc2)n(-c2ccc(Cl)cc2)n1
> 10000 | CCCCCCCCCCCCCCCCNC(=O)c1cc(-c2ccc(Cl)cc2)n(-c2ccc(Cl)cc2)n1
> 10000 | CCCCCCCCCCCCCCCCNC(=O)c1nn(-c2ccc(Cl)cc2Cl)c(-c2ccc(Cl)cc2)c1C
223 | CCCCCCCC/C=C\CCCCCCCCNC(=O)c1cc(-c2ccc(Cl)cc2)n(-c2ccc(Cl)cc2Cl)n1
> 10000 | CCCCCCCCCCCCCCCCNC(=O)c1cc(-c2ccc(Cl)cc2)n(-c2ccccc2)n1
> 10000 | CCCCCCCCCCCCCCCCNC(=O)c1cc(-c2ccc(Cl)cc2)n(-c2ccc(Cl)cc2Cl)n1
467 | CCCCCCCC/C=C\CCCCCCCCNC(=O)c1nn(-c2ccc(Cl)cc2Cl)c(-c2ccc(Cl)cc2)c1C
